The results in this text go back to US6211209A, “Method of inhibiting connective tissue degradation” (Warner-Lambert Company, priority 1998, dated 2001).

By IC50 is commonly meant the concentration that gives 50% inhibition. A low value points to greater potency.

In the experiment the test system is bovine nasal cartilage. In words: Bovine nasal cartilage assay: inhibition of IL-1β-induced proteoglycan loss (chondroitin sulfate by 1,9 DMB). Conditions: Bos taurus; concentration preventing 50% of proteoglycan loss; IL-1β-stimulated cartilage plugs. The format is cell-based. The procedure:
The BNC (bovine nasal cartilage) assay provides a model for evaluating chrondroprotective compounds that block cartilage degradation through inhibition of enzyme activity or by altering the gene expression of the matrix metalloproteinases such as stromelysin.
The assay is accomplished in two phases. The cartilage plugs are first incubated with IL-1β in the presence of the compounds of the present method. The amount of proteoglycan released is then quantified by measuring chondroitin sulfate present in the media using the 1,9-Dimethylmethylene Blue Assay (1,9 DMB).
Bovine nasal septum is dissected free of surrounding tissue and wiped with 70% alcohol. A sterile cork borer is used to remove 5-mm cartilage disks of 2- to 3-mm thickness. Explants are equilibrated for 96 hours in F-12 supplemented with 10% fetal calf serum (FCS) and antibiotics at 37° C. in a humidified atmosphere of 95% air and 5% CO2. Explants are then rinsed with 1 mL F-12 Nutrient Mixture (without phenol red) in order to remove traces of FCS. Each treatment group is done in triplicate allowing: controls (500 μL F-12 medium +110 μL PBS with 0.1% BSA +7 μL DMSO); IL-1β (500 μL F-12 medium without phenol red +100 μL IL-1β (500 U) +7 μL DMSO +10 μL PBS with 0.1% BSA); and dose responses (10, 1, and 0.1 μM) (F-12 medium without phenol red +100 μL IL-1β (500 U) +7 μL compound dissolved in DMSO +10 μL PBS with 0.1% BSA), to be tested per each 24-well plate. The cartilage plugs are incubated in the presence of conditioned media (IL-1β+compound) for 48 hours. Fresh unconditioned media (no IL-1β or compound) is added and incubated for an additional 24 hours. Both the conditioned and unconditioned media are collected and saved for analysis using the 1,9 DMB assay.
The ability of a compound to inhibit proteoglycan released from the cartilage plugs is quantified by measuring chondroitin sulfate. This is done using the calorimetric 1,9 DMB assay. Depending on the amount of chondroitin sulfate present in the media a color change will occur turning the normally deep blue dye, vivid pink. This color change is measured using a Titertek Multiscan MCC 340 plate reader at 540 nm. A Cetus Pro/Pette is used to speed dilution and pipetting steps. The Cetus uses Sarstedt vials, designed for radioimmune assays, which have been inserted into Sarstedt 96-vial aluminum racks. The first row of 12 slots is left empty in order to accommodate the chondroitin sulfate standards (0.01-0.32 μg/mL shark chondroitin sulfate in 0.1 M phosphate buffer, pH 7.0, containing 0.01 M L-cysteine HCl and 0.05 M EDTA). It is necessary to dilute (1:5, 1:10) the medium before a […] is performed by adding 10 μL of collected media to 290 μL DMF (16 mg dye/1 L of 0.1 M formate buffer, pH 3.5, containing 5 mL ethanol) and reading at […]. Dilutions are performed on both the 48-hour and 72-hour media samples collected and saved earlier. Once the experiment has been completed, in order to determine the total amount of proteoglycan remaining in the plugs, they are subjected to papain digestion. Cartilage explants are digested in 20-mL glass scintillation vials by adding 50 μL papain in 1.0 mL cysteine buffer (0.01 M phosphate buffer, pH 7.0 containing 0.01 M L-cysteine HCl and 0.05 M EDTA). Digested material is diluted (1:60) and chondroitin sulfate values determined using the 1,9 DMB assay.
Determination of chondroitin sulfate in each sample is accomplished by subtracting the constant value determined from the linear regression performed on the standard curve, from the O.D. value for a particular well, and then dividing by the X coefficient calculated from the linear regression done on the standard curve. Each experimental well is split into two samples for determining chondroitin sulfate values, then the two are averaged. […]

The structures appear in SMILES notation.

`S=c1[nH]nc(-c2ccccc2Nc2ccccc2)o1` [Compound 1, 5-(2-Phenylamino-phenyl)-3H-[1,3,4]oxadiazole-2-thione]: inhibition was half-maximal at 830 nM (IC50).
